Reference: patent US8993585B2, “Cyclic amine substituted pyrimidinediamines as PKC inhibitors” (Rigel Pharmaceuticals, Inc., priority 2007, dated 2015)

Experiments:
Human primary T cells = experiment: IL-2 ELISA, Human Primary T Cell, Anti-CD3+CD28+ (Example 3); type: cell-based; conditions: anti-CD3+CD28 stimulation
Method in brief: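 Human primary T cells, 100,000 per well, were pre-incubated with compound in Yssel's medium for 1 h at 37 °C. The counter-assay used 0.5 ng/ml PMA with 0.1 uM ionomycin final.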

PKC theta = target: T1, PKC theta (Homo sapiens, UniProt Q04759); experiment: PKC assay, fluorescence polarization (Example 2), PKC theta; type: biochemical; conditions: 5 μM ATP
T1 construct: purchased Upstate Biotechnologies, Temecula, CA 14-444
T1 sequence (Q04759 whole entry): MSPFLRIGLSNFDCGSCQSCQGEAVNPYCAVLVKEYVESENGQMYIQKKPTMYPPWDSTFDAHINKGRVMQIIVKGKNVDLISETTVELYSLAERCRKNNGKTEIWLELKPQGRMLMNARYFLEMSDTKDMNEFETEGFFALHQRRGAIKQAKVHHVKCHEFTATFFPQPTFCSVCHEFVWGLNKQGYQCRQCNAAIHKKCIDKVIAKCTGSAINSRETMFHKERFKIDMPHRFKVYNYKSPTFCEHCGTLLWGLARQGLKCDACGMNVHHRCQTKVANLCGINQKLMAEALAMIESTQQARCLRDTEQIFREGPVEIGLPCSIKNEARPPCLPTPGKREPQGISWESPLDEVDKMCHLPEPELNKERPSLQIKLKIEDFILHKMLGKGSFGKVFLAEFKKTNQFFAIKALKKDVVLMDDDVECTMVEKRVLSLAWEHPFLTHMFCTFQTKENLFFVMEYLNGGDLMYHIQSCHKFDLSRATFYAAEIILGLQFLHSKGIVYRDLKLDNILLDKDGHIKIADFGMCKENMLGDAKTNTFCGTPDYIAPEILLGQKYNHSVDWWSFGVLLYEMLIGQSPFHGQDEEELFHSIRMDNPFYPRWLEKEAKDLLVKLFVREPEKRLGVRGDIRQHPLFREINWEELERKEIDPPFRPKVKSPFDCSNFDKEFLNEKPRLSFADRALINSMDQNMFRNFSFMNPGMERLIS
Method: The inhibition of PKC activity was measured by monitoring the production of phosphorylated peptide by fluorescence polarization at different concentrations of the inhibitor. Reactions were carried out in 96-well plate format with a total volume of 20 μL containing 20 mM HEPES, pH 7.4, 5 mM MgCl2, 0.2 mM CaCl2, 1 mM DTT, 0.02% Brij-35, 0.1 mg/mL phosphatidylserine, 0.02 mg/mL dioleoyl-sn-glycerol and 5 μM each of ATP and the peptide substrate. Compounds were first diluted serially in DMSO and then transferred to a solution containing the above concentrations of HEPES, MgCl2, CaCl2, DTT, and Brij-35 to yield 5× compound solutions in 2% DMSO, which was then added to the reaction solution. Reactions were initiated by the addition of PKC at a typical concentration as described in Table VI, and then allowed to incubate at room temperature for 20 min. At the end of this time, a combination of quench (EDTA) and detection (peptide tracer and antibody) reagents was added using the protocol of Invitrogen P2748.

| SMILES | IC50 (Human primary T cells; Homo sapiens, T-cell, 24 h) | IC50 (PKC theta) | IC50 (Human primary T cells; 24 hours) |
| --- | --- | --- | --- |
| CN1CCN(c2ccc(Nc3ncc(F)c(NC4CC(C)(C)N(C)C(C)(C)C4)n3)cc2)CC1 [Compound I-1] | 3020 nM | 226 nM | – |
| CCN1CCN(c2ccc(Nc3ncc(F)c(NC4CC(C)(C)N(C)C(C)(C)C4)n3)cn2)CC1 [Compound I-6] | 1690 nM | 180 nM | – |
| Cc1cc(Nc2ncc(F)c(NC3CC(C)(C)N(C)C(C)(C)C3)n2)cnc1N1CCN(C)CC1 [Compound I-7] | 530 nM | 16 nM | – |
| Cc1cc(N2CCN(C)CC2)ncc1Nc1ncc(F)c(NC2CC(C)(C)N(C)C(C)(C)C2)n1 [Compound I-8] | 5810 nM | 213 nM | – |
| CN1C(C)(C)CC(Nc2nc(Nc3ccc(S(N)(=O)=O)cc3)ncc2F)CC1(C)C [Compound I-9] | 3440 nM | 86 nM | – |
| CN1C(C)(C)CC(Nc2nc(Nc3cccc(S(N)(=O)=O)c3)ncc2F)CC1(C)C [Compound I-10] | 1880 nM | 70 nM | – |
| Cc1ccc(Nc2ncc(F)c(NC3CC(C)(C)N(C)C(C)(C)C3)n2)cc1S(N)(=O)=O [Compound I-11] | 1570 nM | 52 nM | – |
| Cc1cc(C)cc(Nc2ncc(F)c(NC3CC(C)(C)N(C)C(C)(C)C3)n2)c1 [Compound I-12] | 341 nM | 22 nM | – |
| COc1ccc(Nc2ncc(F)c(NC3CC(C)(C)N(C)C(C)(C)C3)n2)cc1Cl [Compound I-20] | 113 nM | 5 nM | – |
| CN1C(C)(C)CC(Nc2nc(Nc3cccc(C#N)c3)ncc2F)CC1(C)C [Compound I-26] | 59 nM | 3 nM | – |
| COc1ccc(Nc2ncc(Cl)c(NC3CC(C)(C)N(C)C(C)(C)C3)n2)cc1Cl [Compound I-31] | 91 nM | 5 nM | – |
| CN1CCN(c2ccc(Nc3ncc(C(F)(F)F)c(NC4CC(C)(C)N(C)C(C)(C)C4)n3)cc2Cl)CC1 [Compound I-34] | 123 nM | 4 nM | – |
| CN1C(C)(C)CC(Nc2nc(Nc3ccc(C#N)c(Cl)c3)ncc2Cl)CC1(C)C [Compound I-35] | 145 nM | 24 nM | – |
| CC1(C)CC(Nc2nc(Nc3cccc(C#N)c3)ncc2F)CC(C)(C)N1 [Compound I-70] | 517 nM | 38.7 nM | – |
| CN1C(C)(C)CC(Nc2nc(Nc3cccc(-c4cnco4)c3)ncc2F)CC1(C)C [Compound I-100] | 494 nM | 34.4 nM | – |
| CN1C(C)(C)CC(Nc2nc(Nc3cccc(-c4cc5ccccc5s4)c3)ncc2F)CC1(C)C [Compound I-106] | 527 nM | 239 nM | – |
| CN1C(C)(C)CC(Nc2nc(Nc3ccc(Br)c(C(F)(F)F)c3)ncc2F)CC1(C)C [Compound I-109] | 345 nM | 107 nM | – |
| CN1C(C)(C)CC(Nc2nc(Nc3ccc(-c4ccncc4)c(F)c3)ncc2F)CC1(C)C [Compound I-115] | 287 nM | 21.9 nM | – |
| Cc1cc(Nc2ncc(F)c(NC3CC(C)(C)N(C)C(C)(C)C3)n2)ccc1-c1ccncc1 [Compound I-120] | 366 nM | 29.5 nM | – |
| CN1C(C)(C)CC(Nc2nc(Nc3ccc(-c4ccncc4)cc3)ncc2F)CC1(C)C [Compound I-123] | 872 nM | 80.8 nM | – |

| SMILES | IC50 (Human primary T cells; Homo sapiens, T-cell, 24 h) | IC50 (PKC theta) | IC50 (Human primary T cells; 24 hours) |
| --- | --- | --- | --- |
| CN1C(C)(C)CC(Nc2nc(Nc3ccc(-c4cccnc4)cc3)ncc2F)CC1(C)C [Compound I-124] | 540 nM | 55.7 nM | – |
| CN1C(C)(C)CC(Nc2nc(Nc3ccc(-c4ccoc4)cc3)ncc2F)CC1(C)C [Compound I-125] | 892 nM | 111 nM | – |
| CN1C(C)(C)CC(Nc2nc(Nc3ccc(-c4cnn(C)c4)c(C(F)(F)F)c3)ncc2F)CC1(C)C [Compound I-126] | 243 nM | 12 nM | – |
| CN1C(C)(C)CC(Nc2nc(Nc3cc(C(F)(F)F)cc(C(F)(F)F)c3)ncc2F)CC1(C)C [Compound I-146] | 252 nM | 123 nM | – |
| CN1C(C)(C)CC(Nc2nc(Nc3ccc(Br)c(Cl)c3)ncc2F)CC1(C)C [Compound I-153] | 209 nM | 10.2 nM | – |
| CN1C(C)(C)CC(Nc2nc(Nc3ccc(-c4cccnc4)c(Cl)c3)ncc2F)CC1(C)C [Compound I-154] | 261 nM | 3.81 nM | – |
| CN1C(C)(C)CC(Nc2nc(Nc3ccc(-c4ccoc4)c(Cl)c3)ncc2F)CC1(C)C [Compound I-155] | 418 nM | 14.4 nM | – |
| CN1C(C)(C)CC(Nc2nc(Nc3ccc(-c4cnn(C)c4)c(Cl)c3)ncc2F)CC1(C)C [Compound I-157] | 242 nM | 3.1 nM | – |
| CN1C(C)(C)CC(Nc2nc(Nc3ccc(F)c(Br)c3)ncc2F)CC1(C)C [Compound I-158] | 489 nM | 20.6 nM | – |
| COc1ccc(Nc2ncc(F)c(NC3CC(C)(C)N(C)C(C)(C)C3)n2)cc1Br [Compound I-159] | 296 nM | 7.29 nM | – |
| Cc1ccc(Nc2ncc(F)c(NC3CC(C)(C)N(C)C(C)(C)C3)n2)cc1Br [Compound I-160] | 202 nM | 32.6 nM | – |
| CN1C(C)(C)CC(Nc2nc(Nc3cc(Br)cc(C(F)(F)F)c3)ncc2F)CC1(C)C [Compound I-162] | 553 nM | 68.6 nM | – |
| CN1C(C)(C)CC(Nc2nc(Nc3ccc(-c4ccncc4)c(C#N)c3)ncc2F)CC1(C)C [Compound I-185] | 299 nM | 7.65 nM | – |
| CN1C(C)(C)CC(Nc2nc(Nc3ccc(-c4cccnc4)c(C#N)c3)ncc2F)CC1(C)C [Compound I-186] | 92.4 nM | 1.41 nM | – |
| Cc1ccc(Nc2ncc(F)c(NC3CC(C)(C)N(C)C(C)(C)C3)n2)cc1-c1cnn(C)c1 [Compound I-190] | 516 nM | 14.5 nM | – |
| CN1C(C)(C)CC(Nc2nc(Nc3cc(-c4ccoc4)cc(C(F)(F)F)c3)ncc2F)CC1(C)C [Compound I-203] | 427 nM | 92 nM | – |
| CN1C(C)(C)CC(Nc2nc(Nc3cc(-c4cnn(C)c4)cc(C(F)(F)F)c3)ncc2F)CC1(C)C [Compound I-204] | 440 nM | 82.9 nM | – |
| CN1C(C)(C)CC(Nc2nc(Nc3ccc(OC(F)(F)F)c(-c4cccnc4)c3)ncc2F)CC1(C)C [Compound I-208] | 467 nM | 52 nM | – |
| CN1C(C)(C)CC(Nc2nc(Nc3cccc(OC(F)F)c3)ncc2F)CC1(C)C [Compound I-234] | 222 nM | 13.6 nM | – |

Next, values leading:

| IC50 (Human primary T cells; Homo sapiens, T-cell, 24 h) | IC50 (PKC theta) | IC50 (Human primary T cells; 24 hours) | SMILES |
| --- | --- | --- | --- |
| 1570 nM | 407 nM | – | CN1CCN(c2cccc(Nc3ncc(F)c(NC4CC(C)(C)N(C)C(C)(C)C4)n3)c2)CC1 [Compound I-2] |
| 108 nM | 5 nM | – | CN1CCN(c2ccc(Nc3ncc(F)c(NC4CC(C)(C)N(C)C(C)(C)C4)n3)cc2Cl)CC1 [Compound I-3] |
| 254 nM | 30 nM | – | Cc1cc(Nc2ncc(F)c(NC3CC(C)(C)N(C)C(C)(C)C3)n2)ccc1N1CCN(C)CC1 [Compound I-4] |
| 86 nM | 5 nM | – | CN1CCN(c2ccc(Nc3ncc(F)c(NC4CC(C)(C)N(C)C(C)(C)C4)n3)cc2C(F)(F)F)CC1 [Compound I-5] |
| 177 nM | 21 nM | – | CN1C(C)(C)CC(Nc2nc(Nc3ccc(C#N)c(Cl)c3)ncc2F)CC1(C)C [Compound I-22] |
| 937 nM | 15 nM | – | CN1CCN(c2ccc(Nc3ncc(F)c(NC4CC(C)(C)N(C)C(C)(C)C4)n3)cc2F)CC1 [Compound I-39] |
| 443 nM | 11.7 nM | – | CN1CCN(c2ccc(Nc3ncc(C#N)c(NC4CC(C)(C)N(C)C(C)(C)C4)n3)cc2C(F)(F)F)CC1 [Compound I-94] |
| 347 nM | 43 nM | – | CN1C(C)(C)CC(Nc2nc(Nc3ccc(N4CCN(S(C)(=O)=O)CC4)c(C(F)(F)F)c3)ncc2C#N)CC1(C)C [Compound I-95] |
| 290 nM | 3.8 nM | – | CN1C(C)(C)CC(Nc2nc(Nc3ccc(Cl)c(C#N)c3)ncc2F)CC1(C)C [Compound I-163] |
| 223 nM | 2.16 nM | – | CN1C(C)(C)CC(Nc2nc(Nc3ccc(N4CCN(S(C)(=O)=O)CC4)c(C#N)c3)ncc2F)CC1(C)C [Compound I-164] |
| 377 nM | 26.6 nM | – | CN1C(C)(C)CC(Nc2nc(Nc3ccc(N4CCN(S(=O)(=O)C5CC5)CC4)c(C(F)(F)F)c3)ncc2F)CC1(C)C [Compound I-173] |
| 270 nM | 10.7 nM | – | CN1C(C)(C)CC(Nc2nc(Nc3ccc(N4CCN(S(=O)(=O)C5CC5)CC4)c(Cl)c3)ncc2F)CC1(C)C [Compound I-174] |
| 205 nM | 7.11 nM | – | CN1C(C)(C)CC(Nc2nc(Nc3ccc(N4CCN(S(C)(=O)=O)CC4)c(C#N)c3)ncc2Cl)CC1(C)C [Compound I-175] |
| 92.2 nM | 1.49 nM | – | CN1CCN(c2ccc(Nc3ncc(Cl)c(NC4CC(C)(C)N(C)C(C)(C)C4)n3)cc2C#N)CC1 [Compound I-179] |
| 175 nM | 1.94 nM | – | CN1C(C)(C)CC(Nc2nc(Nc3ccc(N4CCOCC4)c(C#N)c3)ncc2F)CC1(C)C [Compound I-198] |
| – | 2.41 nM | 121 nM | CN1CCN(c2ccc(Nc3ncc(F)c(NC4CC(C)(C)N(C)C(C)(C)C4)n3)cc2OC(F)F)CC1 [Compound I-236] |
| 115 nM | 3.94 nM | – | CN1C(C)(C)CC(Nc2nc(Nc3ccc(N4CCN(S(C)(=O)=O)CC4)c(OC(F)F)c3)ncc2F)CC1(C)C [Compound I-238] |
| 248 nM | 34.1 nM | – | CN1C(C)(C)CC(Nc2nc(Nc3ccc(N4CCN(S(C)(=O)=O)CC4)c(C(F)(F)F)c3)ncc2F)CC1(C)C [Compound I-244] |
